According to patent US11464953B2, “Water-soluble microneedle spicules and non-aqueous cosmetic composition containing the same” (PAEAN AESTHETICS INC., priority 2015, dated 2022):

Assay: HPLC stability test of vitamin C in non-aqueous cosmetics
Format: physicochemical
Conditions: maintained for 24 months
Procedure: To confirm the stability of vitamin C (ascorbic acid) contained in non-aqueous cosmetics, the content of the reduced form of ascorbic acid was measured by HPLC for 24 months. The non-aqueous cosmetics in an amount of 0.1 g was collected and distilled water was added to a final volume of 1 mL, and vehemently mixed. Then, the water-soluble ascorbic acid was eluted and the aqueous solution containing ascorbic acid was diluted and used for analysis. The column used was the C18 (4.6×150 mm) and 0.025 M phosphoric acid (pH 2.5) was used for the mobile phase. After adding 10 mM DTT to a 100-fold diluted sample for analysis, the amounts of the reduced form in the sample in which ascorbic acid was all converted to a reduced form and the sample in which 10 mM DTT was not added were compared and thereby the amounts of the ascorbic acid in the reduced form contained in the cosmetics were confirmed. The samples were prepared for 0, 3, 6, 9, 12, 18, and 24 months and analyzed by HPLC. […] The amounts of ascorbic acid in the reduced form was calculated as follows. [table]

Structure (SMILES): O=C1O[C@H]([C@@H](O)CO)C(O)=C1O [ascorbic acid]
- content of ascorbic acid in the reduced form (Initial AA/Total AA × 100): ≥ 96%
